Measurements taken from patent US4602011A, “Antimicrobial compositions and methods of using same” (Chapman Chemical Company, priority 1982, dated 1986).

Assays:
[1] = system: rice seedling emergence; format: in vivo
[2] = system: rice spot (Helminthosporium orazae and Cerocospora orazae); format: in vivo; details: 33 ppm active; 0 no pathogen control to 10 complete
[3] = system: fungal stain and mold growth; assay: fungal stain and mold growth on dip-treated fresh-cut pine boards; details: 28 days
Protocol: In the examples that follow, the effectiveness of the various formulations was determined by treating freshly cut pine boards by dip immersion for 10 seconds in the formulation to be tested. The boards, along with an untreated control, were placed in a chamber for the period of time indicated and maintained at a temperature of about 80° F. and a humidity of about 70%.
At the end of the test period, the boards were removed from the chamber and rated for effectiveness in terms of percentage of total surface area covered by fungal stain and mold growth. Accordingly, the lower the percentage, the higher the effectiveness of the test formulation. […]
As further evidence of the effectiveness of antimicrobials prepared in accordance with this invention, a number of tests were conducted utilizing DDBSA as the disubstituted aryl compound of this invention as a solution with the below-listed microbicidal agents. […] Fresh-cut green pine test boards were dip-treated and evaluated for stain and mold after 30 days in the aforementioned constant atmosphere test chamber:
These compositions were diluted 1:200 with a water carrier for use, and freshly cut pine boards were dip immersed in the formulation to be tested. […] After the test period, the specimen boards were evaluated in terms of percentage of total surface area covered by fungal stain and mold growth.

[4] = system: fungi; assay: antifungal efficacy of formulated phenolics; details: formulated per invention vs conventional
Excerpt: The antifungal efficacy of these phenolics is improved by formulation in accordance with this invention.

[5] = system: Ceratocystis pilifera; assay: sugar cane pineapple disease emergence test; format: in vivo; details: 56 days
Protocol: The following composition was prepared and evaluated for control of pineapple disease of sugar cane (Ceratocystis pilifera):
Sugar cane seed was treated with this solution as diluted with a water carrier. Seed also was treated with benomyl, thiophanate methyl, Panoctine (9-aza-1,17-diquanidinoheptadecane triacetate), hot water and cold water. The results are tabulated below:
(2) Prior to planting, the seed was inoculated with the causal disease
organism, Ceratocystis pilifera. Emergence data was collected 56 days

[6] = system: P. aeruginosa; details: reference tests and manufacturer's literature; cited from earlier work
[7] = system: bean rust (Uromyces phaseoli typica); assay: foliar spray on beans; format: in vivo; details: 33 ppm active; 0 no pathogen control to 10 complete
Excerpt: (§1) The composition of Example 23 was screened for fungal pathogen response as a foliar spray on beans and rice. The rating scale is from 0 (no pathogen control) to 10 (complete pathogen control). The concentration of active ingredient (in a water carrier) of all compositions tested is 33 parts per million (ppm). The active ingredient in the composition of Example […] is expressed in terms of Cu-8-Q and the chemical as listed below for four comparative products. The comparative products tested were Karathane (2,4-dimitro-6-(2-octyl phenyl crotonate), Vitavax (5,6-dihydro-2-methyl-1,4-oxathiin-3-carboxanilide), Daconil (tetrachloroisophthalonitrile) and Maneb (manganese ethylenebisdithiocarbamate). The plants and diseases tested were bean mildew (Erysiphe polygoni), bean rust (Uromyces phaseoli typica) and rice spot (Helminthosporium orazae and Cerocospora orazae).
(§2) The rating scale is from 0 (no pathogen control) to 10 (complete pathegon control). The concentration of active ingredient (in a water carrier) of all compositions tested is 33 parts per million (ppm). The active ingredient in the composition of Example 4 is expressed in terms of Cu-8-Q and the chemical as listed below for four comparative products. […]

[8] = system: bean mildew (Erysiphe polygoni); assay: foliar spray on beans; format: in vivo; details: 33 ppm active; 0 no pathogen control to 10 complete
Excerpt: as §1, §2

[9] = system: Athlete's Foot; assay: Athlete's Foot treatment; format: in vivo, human; details: one case; Toluaftate 1% twice daily for eight days
Excerpt: The second formulation in the preceding Example was applied once daily by eight test subjects to the skin between the toes for control of "Athlete's Foot". […] Two of the cases had previously resisted control with several over-the-counter brand name antifungals. One of the two, a virulent infection, had reached the bleeding stage from deeply cracked skin and a bacterial infection started, despite twice daily application for eight days of a 1% solution of Toluaftate which has gained broad recognition for effective control of "Athlete's Foot".

[10] = system: Penicillium brevi compactum (ATCC 16024); details: ppm of active ingredient; "1" means 1 or fewer
[11] = system: Trichoderma viride (ATCC 8678); details: ppm of active ingredient; "1" means 1 or fewer
[12] = system: Aspergillis terreus (ATCC 10609); assay: minimum fungicidal concentration; format: cell-based; details: ppm of active ingredient; "1" means 1 or fewer
[13] = system: Candida albicans (ATCC 10259); assay: minimum fungicidal concentration; format: cell-based; details: ppm of active ingredient; "1" means 1 or fewer
[14] = system: Lenzites trabea (ATCC 11539); assay: minimum fungicidal concentration; format: cell-based; details: ppm of active ingredient; "1" means 1 or fewer
[15] = system: human skin; assay: skin irritation on human subjects; format: in vivo; details: undiluted on hands
Protocol: These compositions were tested for skin irritation by rubbing 2 ml of each onto the hands of six test subjects. After 60 seconds, Compositions A, B and C were rinsed off the hands with water. […] The results with Compositions D and E were observably different.
The two compositions were tested for skin irritation by placing two drops of one composition on the skin at the inside of one elbow of five test subjects and two drops of the other composition on the same spot on the other elbow of each subject. In all cases, the composition was smeared over about a one-half square inch of skin and the subjects' reactions were noted over a 20-minute test period.
The compositions were tested on three subjects for skin irritation by spreading two drops of each composition over a one square inch area of skin just below one eye of each test subject and the other composition on the same spot beneath the other eye.

CC1=C(C(=O)Nc2ccccc2)SCCO1 [PRODUCT D, 5,6dihydro-2-methyl-1,4-oxathiim-3-carboxanilide]
Improvement over Control ([1]; 4 ounces/cwt, thirteen test plots): 12.3%
Performance Consistency ([1]; in vivo): 71.3

N#Cc1c(Cl)c(Cl)c(Cl)c(C#N)c1Cl [Daconil, tetrachloroisophthalonitrile]
Rice Spot rating [2]: 10

OB(O)O [Orthoboric acid]
% Stain and Mold ([3]; 0.25% in water): 86%
% Stain and Mold ([3]; 0.50% in water): 62%

tetrachlorophenol
antifungal efficacy improvement [4]: significantly higher than would be expected

manganese ethylenebisdithiocarbamate [Maneb]
Rice Spot rating [2]: 8

Oc1cc(Cl)cc(Cl)c1Cl [2,3,5-trichlorophenol]
antifungal efficacy improvement [4]: significantly higher than would be expected

Oc1c(Cl)c(Cl)c(Cl)c(Cl)c1Cl [pentachlorophenol]
antifungal efficacy improvement [4]: significantly higher than would be expected

CCCCNC(=O)n1c(NC(=O)OC)nc2ccccc21 [Benomyl, benomyl]
% Emergency, Inoculated ([5]; 150 ppm active): 50%

N=C(N)NCCCCCCCCNCCCCCCCCNC(=N)N [Panoctine, 9-aza-1,17-diquanidinoheptadecane triacetate]
% Emergency, Inoculated ([5]; 50 ppm active): 48%
% Emergency, Inoculated ([5]; 100 ppm active): 48%
% Emergency, Inoculated ([5]; 200 ppm active): 53%

Oc1ccc(Cl)cc1-c1ccccc1 [4-chloro-2-phenyl phenol]
phenol coefficient [6]: less than 10

CC1=C(C(=O)Nc2ccccc2)SCCO1 [Vitavax, 5,6-dihydro-2-methyl-1,4-oxathiin-3-carboxanilide]
Bean Rust rating [7]: 9

Oc1ccccc1-c1ccccc1 [Orthophenyl phenol]
antifungal efficacy improvement [4]: significantly higher than would be expected

COC(=O)NC(=S)Nc1ccccc1NC(=S)NC(=O)OC [Thiophanate methyl, thiophanate methyl]
% Emergency, Inoculated ([5]; 50 ppm active): 55%
% Emergency, Inoculated ([5]; 150 ppm active): 51%
% Emergency, Inoculated ([5]; 300 ppm active): 49%

CC=CC(=O)Oc1c(C(C)CCCCCC)cc([N+](=O)[O-])cc1[N+](=O)[O-] (stereo not drawn) [Karathane, 2,4-dimitro-6-(2-octylphenyl crotonate]
Bean Mildew rating [8]: 10

Cc1cccc(N(C)C(=S)Oc2ccc3ccccc3c2)c1 [Toluaftate]
control of resistant Athlete's Foot and bacterial infection [9]: failed to control

CCCCCCCCCCCCc1ccc(S(=O)(=O)O)cc1 [DDBSA, dodecyl benzene sulfonic acid]
Minimum Fungicidal Concentration [10]: 100 ppm
Minimum Fungicidal Concentration [11]: 100 ppm
Minimum Fungicidal Concentration [12]: 100 ppm
Minimum Fungicidal Concentration [13]: 1,000 ppm
Minimum Fungicidal Concentration [14]: 100 ppm
skin sensation [15]: almost immediate warm and uncomfortable sensation
